Results published in patent US20220151227A1, “CARNIVOROUS WASP CONTROL AGENT” (EARTH CORPORATION, priority 2019, published 2022).

Assays:
Test in all cases: Control Test 1: aerosol sprayed on one test wasp in metal mesh cage, control time
Type in all cases: in vivo
Conditions in all cases: 2 g aerosol sprayed 1 second from approx. 30 cm, observed up to 180 seconds
Vespa mandarinia = tested on: Vespa mandarinia
From the text: (§1) Ten grams of ethyl lactate, which is an active ingredient under the present invention, was put in an aerosol can as a liquid concentrate, and then a valve part was installed on the can, after which dimethyl ether was filled through the valve part as a propellant until the weight ratio of the liquid concentrate and the propellant became 1:2, and then a spray button was installed, to obtain 30 g of aerosol test sample in Example 1.
(§2) In Examples 2 to 28 and Comparative Examples 1 to 6, the liquid concentrates shown in Table 1 below were used to obtain 30 g of respective test samples in the same manner as in Example 1.
(§3) After spraying, the time it took for the test wasp to stop behaving normally and begin grooming abnormally and showing agitated behaviors (flapping of wings), and eventually drop to the bottom of the metal gauge, was measured as the control time (in seconds). In Table 1, “IPA” stands for isopropanol, while “%” refers to % by weight.
(§4) It should be noted that “turpentine oil” in Examples 2 and 3 is a plant-based essential oil containing 85% by weight or more of α-pinene which is an active ingredient under the present invention, while Comparative Example 5 contains 1% by weight of isopropyl myristate as a dissolving aid.

Polistes rothneyi = tested on: Polistes rothneyi
From the text: as §1, §2, §3, §4

Polistes jokahamae = tested on: Polistes jokahamae
From the text: as §1, §2, §3, §4

Vespa simillima = tested on: Vespa simillima
From the text: as §1, §2, §3, §4

Vespa ducalis = tested on: Vespa ducalis
From the text: as §1, §2, §3, §4

| Compound | Control time (Polistes rothneyi) [s] | Control time (Polistes jokahamae) [s] | further results |
| --- | --- | --- | --- |
| C=CC(C)(O)CCC=C(C)C (stereo not drawn) [compound 3, Linalool] | – | – | Control time (Vespa mandarinia): >180 s |
| CC12CCC(CC1)C(C)(C)O2 [Example 20, Cineol] | <1 | – | – |
| CCCCCC(O)CC (stereo not drawn) [Example 13, 3-octanol] | <1 | – | – |
| COC(=O)c1ccccc1 [Example 6, Methyl benzoate] | <1 | – | – |
| C=C(C)C1CC=C(C)C(=O)C1 (stereo not drawn) [Example 23, Carvone] | – | <1 | – |
| CC(C)[C@@H]1CC[C@@H](C)CC1=O [Example 4, Menthone] | – | <1 | – |
| α-turpentine [Example 9] | <1 | – | – |
| CC1CCC(C(C)C)C(O)C1 (stereo not drawn) [Example 21, Menthol] | – | <1 | – |
| CC(C)O [compound 6, IPA, reference compound] | – | >180 | – |
| CC(C)=C1CC[C@@H](C)CC1=O [Example 10, Pulegone] | <1 | – | – |
| CC(C)[C@]12CC(=O)[C@H](C)[C@H]1C2 [Example 12, Thujone] | <1 | – | – |
| O=C(Cc1ccccc1)OCc1ccccc1 [Example 14, Benzyl phenyl acetate] | <1 | – | – |
| CCOC(=O)C(C)O (stereo not drawn) [Example 1, Ethyl lactate] | – | <1 | – |
| CC(C)=CCCC(C)=CCCC(C)=CCO [Example 8, Farnesol] | <1 | – | – |
| CC(=O)OC1CC(C)CCC1C(C)C (stereo not drawn) [compound 2, Menthyl acetate] | – | – | Control time (Vespa simillima): >180 s |
| CCOC(=O)c1ccccc1 [Example 7, Ethyl benzoate] | <1 | – | – |
| COC(=O)Cc1ccccc1 [Example 28, Methyl phenyl acetate] | – | <1 | – |
| COC(=O)C(C)O (stereo not drawn) [Example 26, Methyl lactate] | – | <1 | – |
| CCCCOC(=O)C(C)O (stereo not drawn) [Example 27, n-butyl lactate] | – | <1 | – |
| CC(C)[C@@H]1CC[C@@H](C)CC1=O [Example 5, Menthone] | – | – | Control time (Vespa ducalis): <1 s |
| CC(C)=CCCC(C)=CC=O [Example 11, Citral] | <1 | – | – |
